Laboratory results taken from patent publication US20250041247A1, “SMALL MOLECULE INHIBITORS OF REPEAT ASSOCIATED NON-AUG (RAN) TRANSLATION AND COMBINATION THERAPIES” (University of Florida Research Foundation, Incorporated, priority 2021, published 2025).

Assays:
poly-Ala RAN proteins = test: Protein blots for poly-Ala RAN proteins in HEK293T cells transfected with CAG expansion constructs; format: cell-based; settings: treatment with different concentrations of quercetin, or metformin
Source text: cDNA constructs. […] Antibodies. […] Western blotting. […] Quantification and statistical analysis.

[1] = system: C9orf72 ALS/FTD mice (C9); test: DigiGait gait analysis; format: in vivo; settings: 18 week female mice
Protocol: Gait analysis. Digital video images of the underside of the mouse were collected with a high-speed video camera from below the transparent belt of a motorized treadmill (DigiGait™ Imaging system, Mouse Specific). Female C9orf72 ALS/FTD mice (C9) mice and their littermates (non-transgenic mice (NT)) were tested at 18 weeks of age with treatment beginning at 8 weeks of age. Each mouse was allowed to explore the treadmill compartment with the motor speed set to 14 cm/s for 1 min, then the motor speed was increased to 24c m/s for video recording. Only video recordings in which the mouse walked straight ahead with a constant relative position with respect to the camera were used for analysis. Data from each hind paw was analyzed with DigiGait automated gait analysis software (Mouse Specifics). For additional details, see Neuron, 2016, 90(3), 521-34. doi: 10.1016/j.neuron.2016.04.005. Mock treatment is vehicle only, meaning chow without quercetin.

[2] = Quercetin-NT vs Quercetin C9, significance

## CN(C)C(=N)NC(=N)N [metformin]
poly-Ala RAN proteins
  polyAla RAN proteins expressed from (CAG)exp: reduction

## O=c1c(O)c(-c2ccc(O)c(O)c2)oc2cc(O)cc(O)c12 [quercetin]
poly-Ala RAN proteins
  polyAla RAN proteins expressed from (CAG)exp: reduction
[1]; DigiGait, treatment beginning at 8 weeks, quercetin in chow
  13 gait abnormalities found between C9orf72 ALS/FTD mice (C9) vs. non-transgenic (NT) mice: corrected
[1]; [2]
  Absolute PawAngle (deg): ns
  Ataxia Coefficient (real#): ns
  Axis Distance (cm/s): ns
  Brake (s): ns
  BrakeStance (%): ns
  BrakeStride (%): ns
  Gait Symmetry (real#): ns
  Hind Limb Shared Stance Time (s): ns
  MAX dA/dT (cm^2/s): ns
  MIN dA/dT (cm^2/s): ns
  Midline Distance (cm): ns
  Overlap Distance (cm): ns
  Paw Angle Variability (deg): ns
  Paw Area Variability at Peak Stance in sq. cm (cm^2): ns
  Paw Area at Peak Stance in sq. cm (cm^2): ns
  Paw Drag (real#): ns
  PawAngle (deg): ns
  PawPlacementPositioning[PPP] (cm): ns
  Propel (s): ns
  PropelStance (%): ns
  PropelStride (%): ns
  SLVar (cm): ns
  SWVar (cm): ns
  Shared Stance (%): ns
  Stance (s): ns
  Stance/Swing (real#): ns
  StanceFactor (real#): ns
  StanceStride (%): ns
  StanceWidth (cm): ns
  StepAngle (deg): ns
  StepAngle Var (deg): ns
  Steps (real#): ns
  Stride (s): ns
  Stride Frequency (steps/s): ns
  StrideLength (cm): ns
  Swing (%): ns
  SwingStride (%): ns
  Tau - Propulsion (real#): ns
